pIC50: −log10 of the molar value.
Columns and labels:
[1] = molecular target: T1, Mitogen-activated protein kinase 14 (Homo sapiens, UniProt Q16539); test: Inhibition of p38 alpha (unknown origin) assessed as residual activity at 1 uM relative to control
[2] = molecular target: T1, Mitogen-activated protein kinase 14; test: Inhibition of p38 alpha (unknown origin)
Rattus norvegicus = test: Anti-allodynic activity in complete freund's adjuvant-induced rat inflammatory pain model assessed as inhibition of inflammatory mechanical allodynia at 10 uM, ic administered 30 min before CFA injection and measured after 120 mins by Von Frey filament assay relative to control; type: functional; details: 2.5 h, time 150 min
[3] = molecular target: T1, Mitogen-activated protein kinase 14; test: Inhibition of p38 alpha (unknown origin) at 1 uM relative to control

T1 sequence (Q16539 whole entry): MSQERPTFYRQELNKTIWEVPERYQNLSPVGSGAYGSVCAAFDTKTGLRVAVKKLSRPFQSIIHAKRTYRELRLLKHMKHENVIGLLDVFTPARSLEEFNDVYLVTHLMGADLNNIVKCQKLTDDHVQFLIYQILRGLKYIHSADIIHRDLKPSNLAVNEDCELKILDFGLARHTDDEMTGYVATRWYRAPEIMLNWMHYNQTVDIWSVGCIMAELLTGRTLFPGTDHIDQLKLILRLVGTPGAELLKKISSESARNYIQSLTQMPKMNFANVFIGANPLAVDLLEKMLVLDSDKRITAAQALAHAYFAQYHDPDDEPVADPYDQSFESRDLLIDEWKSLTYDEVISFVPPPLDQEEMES

Row | SMILES | Activity [1] | pIC50 [2] | inhibition [3] | inhibition in vivo at 10 µM (Rattus norvegicus)
1 | O=c1[nH]cc(Nc2ccc(Br)cc2)cc1-c1cccc2[nH]ccc12 | 43% | 5.62 |  | 
2 | O=c1[nH]cc(Nc2ccccc2)cc1-c1ccccc1Br | 59% |  | 41% | 65%
3 | O=c1[nH]cc(Nc2ccncc2)cc1-c1cccc2[nH]ccc12 | 67% |  | 33% | 100%
4 | COc1ccc(Nc2c[nH]c(=O)c(-c3cccc4[nH]ccc34)c2)cc1 | 59% |  |  | 16%
5 | O=c1[nH]cc(Nc2cccc(O)c2)cc1-c1cccc2[nH]ccc12 | 34% | 6.00 |  | 
6 | O=c1[nH]cc(Nc2cccnc2)cc1-c1cccc2[nH]ccc12 | 64% |  |  | 
7 | COc1cccc(Nc2c[nH]c(=O)c(-c3cccc4[nH]ccc34)c2)c1 | 50% |  |  | > 80%
8 | CCOC(=O)c1ccc(Nc2c[nH]c(=O)c(-c3cccc4[nH]ccc34)c2)cc1 | 86% |  |  | 
9 | O=c1[nH]cc(Nc2cccc(Br)c2)cc1-c1cccc2[nH]ccc12 | 31% | 6.15 |  | 
10 | CCOC(=O)c1cccc(Nc2c[nH]c(=O)c(-c3cccc4[nH]ccc34)c2)c1 | 81% |  |  | > 80%
11 | O=c1[nH]cc(Nc2ccccn2)cc1-c1cccc2[nH]ccc12 | 70% |  |  | > 80%
12 | O=c1[nH]cc(Nc2ccc([N+](=O)[O-])cc2)cc1-c1cccc2[nH]ccc12 | 93% |  |  | 98%
13 | O=c1[nH]cc(Nc2cccc([N+](=O)[O-])c2)cc1-c1cccc2[nH]ccc12 | 73.9% |  |  | 

Further lines, with some results ahead:

Row | Activity [1] | pIC50 [2] | inhibition [3] | SMILES | inhibition in vivo at 10 µM (Rattus norvegicus)
14 | 50% |  |  | COc1ccccc1Nc1c[nH]c(=O)c(-c2cccc3[nH]ccc23)c1 | > 80%
15 | 45% |  |  | O=c1[nH]cc(Nc2ccccc2Br)cc1-c1cccc2[nH]ccc12 | 
16 | 92.3% |  |  | O=c1[nH]cc(Nc2ccccc2[N+](=O)[O-])cc1-c1cccc2[nH]ccc12 | > 80%
17 | 59% |  |  | O=c1[nH]cc(Nc2ccccc2)cc1-c1cccc2[nH]ccc12 | 
18 | 33% | 5.96 |  | Cc1ccccc1Nc1c[nH]c(=O)c(-c2cccc3[nH]ccc23)c1 | > 80%
19 | 28% |  | 72% | O=c1[nH]cc(Nc2ccccc2F)cc1-c1cccc2[nH]ccc12 | 
20 | 104% |  |  | CCOC(=O)c1ccccc1Nc1c[nH]c(=O)c(-c2cccc3[nH]ccc23)c1 | 
21 | 39% | 6.40 |  | O=c1[nH]cc(Nc2ccc(F)cc2)cc1-c1cccc2[nH]ccc12 | > 80%
22 | 47% | 5.85 |  | O=c1[nH]cc(Nc2cccc(F)c2)cc1-c1cccc2[nH]ccc12 | > 80%
